The GI50 is the concentration at which growth is held to half of that of the control.

Series [1] deals with BR1282 TNBC PDX. The conditions noted are these: paclitaxel 15 mg/kg, QW, IV alone. The method, then:
(§1) Animal studies were performed by Charles-River Laboratories (Wilmington, Massachusetts, USA; MDA-MB-231 xenograft experiments) or Crown Biosciences Inc, (Taicang, China; SK-OV-3 xenograft and TNBC PDX screening experiments). All studies were performed in adherence with local ethical rules.
5x10^6 MDA-MB-231 cells were injected subcutaneously (s.c.) in the flank of NCr nude mice (n=8-15/group for efficacy experiments, n=2-3/group for tumor pharmacodynamic evaluation), 1x10^7 SK-OV-3 cells were injected s.c. in the flank of Balb/c nude mice (n=8/group) and specific PDX tumor fragments (3x3x3 mm^3) were inoculated s.c. in the flank of Balb/c nude mice or NOD/SCID mice (n=4-5/group for efficacy screening and tumor pharmacodynamic experiments, n=8/group for combination experiments). Mice were randomly grouped based on a mean tumor volume (TV) of 100-200 mm^3. For dedicated pharmacodynamic studies, treatment began with TVs of ~400 mm^3. Mice were culled when individual tumors exceeded 1500 mm^3 or if the body-weight loss (BWL) was >15% for 3 consecutive days or reached 20%. Dosing holidays were given to allow recovery for BWL >10%. When the endpoint was reached, mice were culled and plasma and tissue samples obtained. Samples were snap frozen and stored at -80 °C. In some cases, tumors were formalin-fixed and paraffin-embedded (FFPE) following standard procedures. […] Paclitaxel (6 mg/mL) was prepared using the clinical formulation (Cremophor-EL) and diluted in 0.9% saline just prior to use. Carboplatin was prepared in 5% glucose in pure water. Dosing and combination regimens for each specific experiment are outlined in the text.
BW is presented as the % ΔBW and as the fractional-change (endpoint/treatment-start) for each group. As an assessment of synergy, the Clarke-Combination-Index (CCI) was applied ([32]) where a CCI of <-0.1 was considered synergistic, >+0.1 antagonistic, and in-between, additive.
Paclitaxel (15 mg/kg) was administered IV QW to BR1282 PDX-bearing mice. […]

The subject of series [2] is BR1282 TNBC PDX. Briefly: BR1282 PDX combination with carboplatin. The conditions noted are these: carboplatin 60 mg/kg, IV, QW. Type of series: in vivo, mice. The method, then:
Samples were snap frozen and stored at -80 °C. […] Carboplatin was prepared in 5% glucose in pure water.

The test system of series [3] is SK-OV-3 ovarian cell-derived xenograft. As to the kind of experiment: SK-OV-3 xenograft combination study with carboplatin. Conditions: carboplatin 60 mg/kg, QW, IV alone. The method, then:
as §1
5x10^6 MDA-MB-231 cells were injected subcutaneously (s.c.) in the flank of NCr nude mice (n=8-15/group for efficacy experiments, n=2-3/group for tumor pharmacodynamic evaluation), 1x10^7 SK-OV-3 cells were injected s.c. in the flank of Balb/c nude mice (n=8/group) and specific PDX tumor fragments (3x3x3 mm^3) were inoculated s.c. in the flank of Balb/c nude mice or NOD/SCID mice (n=4-5/group for efficacy screening and tumor pharmacodynamic experiments, n=8/group for combination experiments). Mice were randomly grouped based on a mean tumor volume (TV) of 100-200 mm^3. For dedicated pharmacodynamic studies, treatment began with TVs of ~400 mm^3. Mice were culled when individual tumors exceeded 1500 mm^3 or if the body-weight loss (BWL) was >15% for 3 consecutive days or reached 20%. Dosing holidays were given to allow recovery for BWL >10%. When the endpoint was reached, mice were culled and plasma and tissue samples obtained. Samples were snap frozen and stored at -80 °C. In some cases, tumors were formalin-fixed and paraffin-embedded (FFPE) following standard procedures. […]

A further series has as its system KT-associated BubR1. Briefly: Immunofluorescence of BubR1 at kinetochores in HT29 cells. The series is classed as cell-based. Conditions: nocodazole-blocked mitotic HT29 cells, 1 hour, GI50 concentration. The method, then:
Immunoblotting, SAC co-immunoprecipitation assays and immunofluorescence microscopy were performed using standard procedures as outlined in the Supplementary Information .
Cells were seeded on 13-mm glass coverslips in full medium and left to adhere O/N. After the appropriate treatments, cells were fixed with ice-cold 100% methanol for 5 min at -20°C and then rehydrated in PBS for 10 min. Coverslips were blocked for 30 min with 3% BSA (w/v) in PBS (BP) and then incubated with a 1:100 or 1:1000 dilution of BubR1 or CENP-C primary antibodies in BP, respectively, for 1 h in a moist environment. […] Images were projected (maximum intensity projection) using the NIS Elements AR software (Nikon) and quantification was performed using the General Analysis 2 tool. The quantification process comprised the following steps: selection of mitotic cells via intensity measurement of a threshold DAPI signal; generation of a kinetochore mask based on the intensity of bright spots (CENPC signal) inside the selected nuclei; generation of a tertiary mask for the BubR1 signal at kinetochores and BubR1 background measurements in the selected nuclei; export of reference images and signal intensities per cell.

Series [4] deals with HT29 cells. Briefly: Cell growth assay, GI50s used for SAC analyses. Type of series: cell-based. The conditions noted are these: Homo sapiens, HT-29; 120 h cell growth assay. The method, then: Cell lines were seeded in appropriate culture medium into 96-well plates and 9 serial compound dilutions (0.004 – 1 μM) were added 24 h later for 120 h. Residual cells were stained with crystal violet or YO-PRO (Molecular Probes, #Y-3603). GI50 values were calculated by fitting the data to a sigmoidal dose–response model with a variable slope using GraphPad Prism software after subtraction of the starting control signal.

A further series relates to MDA-MB-231 xenograft. Further details: method as in PMID 28270606. Conditions: daily dosing, MDA-MB-231 xenografted mice; cited from earlier work.
Series [5] has as its system HT29 cells. As to the kind of experiment: Flow cytometry cell cycle analysis. Type of series: cell-based. The conditions noted are these: nocodazole treatment. The method, then:
Cells were fixed in 70% high grade ethanol, washed in PBS, incubated in propidium iodide (PI) solution (50 μg/mL PI and 0.5 mg/mL RNAse A, Sigma-Aldrich, in PBS) for 30 min and analyzed using a BD FACSCanto II flow cytometer (BD Biosciences).
For orientation: Flow cytometry measures light scatter and fluorescence of single cells or particles in a stream.

Structures are written as SMILES. Marks after values point to notes of the source that are not given here.

In the case of `CC(=O)O[C@H]1C(=O)[C@@]2(C)[C@H]([C@H](OC(=O)c3ccccc3)[C@]3(O)C[C@H](OC(=O)[C@H](O)[C@@H](NC(=O)c4ccccc4)c4ccccc4)C(C)=C1C3(C)C)[C@]1(OC(C)=O)CO[C@@H]1C[C@@H]2O` [Paclitaxel], in the series with BR1282 TNBC PDX [1] (Study 1), the “Efficacy ΔT/C (day 16)” value turned out to be 0.24. Further, in the series with BR1282 TNBC PDX [1] (Study 1, day 37, regressions in 1/8 mice), the “Regressions (%) (end of treatment day)” value is 30 (37)* %. For the same compound, the “Efficacy ΔT/C (day 13)” value in the series with BR1282 TNBC PDX [1] (Study 2) stood at 0.48.

As for `N.N.O=C([O-])C1(C(=O)[O-])CCC1.[Pt+2]` [Carboplatin], the “antitumor activity of monotherapy” value with BR1282 TNBC PDX [2] is “without activity”. Besides, in series [3], the “Efficacy ΔT/C (day 23)” value is recorded as 0.72. In series [3] (body weight), the “Tolerability ΔT/C (day 23)” value is recorded as 0.97.

Turning to `Cc1cc(-c2cnn3c(NC[C@H]4C[C@@](C)(O)C4)cc(Oc4cccnc4)nc23)ccc1C(=O)NC1CC1` [CFI-402257], in the series on KT-associated BubR1, the “reduction in KT-associated BubR1” value is recorded as “Some reduction”. The same compound displayed a GI50 in the series with HT29 cells [4] of 31 to 38 nM. Further, the “maximum tumor growth inhibition” value with MDA-MB-231 xenograft is recorded as 89%.

Turning to `CN1CCN(c2ccc(OC(F)(F)F)c(Nc3ncc4c(n3)-c3c(c(C(N)=O)nn3CCO)CC4)c2)CC1` [onvansertib], in the series with KT-associated BubR1, the “reduction in KT-associated BubR1” value is “minor effects”. In the series on HT29 cells [4], this compound displayed a GI50 of 14 nM.

`COC(=O)Nc1nc2ccc(C(=O)c3cccs3)cc2[nH]1` [nocodazole]: in the series on HT29 cells [5], the “accumulation in G2/M of the cell cycle” value was 67%.

Source of the values: paper PMC11341980, “Dual TTK/PLK1 inhibition has potent anticancer activity in TNBC as monotherapy and in combination” (Frontiers in Oncology, 2024).
